From patent US20260021061A1, “ARIADNE AND ANALOGS FOR THE TREATMENT OF NEUROLOGICAL AND NEUROMUSCLAR DISORDERS” (priority 2022, published 2026)

Assays:
[1] = system: patients; details: cited from earlier work
[2] = system: mice; assay: Elevated plus maze (EPM); type: in vivo, mouse; details: 30 minutes and 4 hours post single s.c. injection
Experimental: FIGS. 7A-D Effect of Ariadne in behavioral conflict paradigms. (a) Survival plot of effect of (R)-Ariadne (10 mg/kg) on latency to feed in the novelty suppressed feeding (NSF) test 7 days post a single drug administration. (b) Effect of 6 mg/kg and 10 mg/kg (R)-Ariadne on latency to feed in the novelty suppressed feeding (NSF) test 7 days post a single drug administration. (c) Effect of (R)-Ariadne and (±)-DOPR on the time spent in the open vs closed arms and (d) corresponding arm entries 30 minutes and 4 hours post a single subcutaneous injection.

[3] = system: cats; details: in comparison to (R)-DOM; cited from earlier work
[4] = biological target: T1, Potassium Channel hERG, [3H]Dofetilide (Homo sapiens, UniProt Q12809); assay: SafetyScreen44 265910; type: binding; details: 10 μM, recombinant
T1 construct: purchased Eurofins-Panlabs (contract screen SafetyScreen44) assay ID 265910
Experimental: (§1) A broad screen of 44 molecular targets (SafetyScreen44, Eurofins-Panlabs) for Ariadne were performed, which includes G protein-coupled receptors, steroid nuclear receptors, ion channels, neurotransmitter transporters, and metabolic and signaling enzymes. Only two molecular targets, 5-HT2A and 5-HT2B receptors, emerged above the positive hit threshold, defined as 50% displacement of standard radioligands by 10 uM concentration of Ariadne (FIG. 1b, and Table 1).
(§2) For species, “H”=human, “R”=rat. Test compound screened at all targets at concentration of 10 μM.

[5] = biological target: T2, Opiate kappa (OP2, KOP) (Homo sapiens, UniProt P41145); assay: SafetyScreen44 260210; type: binding; details: 10 μM; [3H]Diprenorphine; recombinant
T2 construct: purchased Eurofins-Panlabs (contract screen SafetyScreen44) assay ID 260210
Experimental: as §1, §2

[6] = system: Sodium Channel, Site 2; assay: SafetyScreen44 279510; type: binding, human; details: 10 μM; [3H]Batrachotoxinin; recombinant
Experimental: as §1, §2

[7] = system: GABAA, Flunitrazepam, Central; assay: SafetyScreen44 226600; type: binding, rat; details: 10 μM; [3H]Flunitrazepam; brain (minus cerebellum)
Experimental: as §1, §2

[8] = biological target: T3, Adrenergic alpha2A (Homo sapiens, UniProt P08913); assay: SafetyScreen44 203630; type: binding; details: 10 μM; [3H]Rauwolscine; recombinant
T3 construct: Eurofins-Panlabs (contract screen) 203630
Experimental: as §1, §2

[9] = biological target: T4, Opiate μ (OP3, MOP) (Homo sapiens, UniProt P35372); assay: SafetyScreen44 260410; type: binding; details: 10 μM; [3H]Diprenorphine; recombinant
T4 construct: purchased Eurofins-Panlabs (contract screen SafetyScreen44) assay ID 260410
Experimental: as §1, §2

[10] = biological target: T5, Androgen (Testosterone) (Homo sapiens, UniProt P10275, T878A); assay: SafetyScreen44 206000; type: binding; details: 10 μM; [3H]Methyltrienolone; LNCaP clone FGC cells
T5 construct: Eurofins-Panlabs (contract screen) 206000
Experimental: as §1, §2

[11] = biological target: T6, Adenosine A2A (Homo sapiens, UniProt P29274); assay: SafetyScreen44 200610; type: binding; details: 10 μM; [3H]CGS-21680; recombinant
T6 construct: Eurofins-Panlabs (contract screen) 200610
Experimental: as §1, §2

[12] = biological target: T7, Dopamine D1 (Homo sapiens, UniProt P21728); assay: SafetyScreen44 219500; type: binding; details: 10 μM; [3H]SCH-23390; recombinant
T7 construct: Eurofins-Panlabs (contract screen) 219500
Experimental: as §1, §2

T7 sequence (P21728 whole entry): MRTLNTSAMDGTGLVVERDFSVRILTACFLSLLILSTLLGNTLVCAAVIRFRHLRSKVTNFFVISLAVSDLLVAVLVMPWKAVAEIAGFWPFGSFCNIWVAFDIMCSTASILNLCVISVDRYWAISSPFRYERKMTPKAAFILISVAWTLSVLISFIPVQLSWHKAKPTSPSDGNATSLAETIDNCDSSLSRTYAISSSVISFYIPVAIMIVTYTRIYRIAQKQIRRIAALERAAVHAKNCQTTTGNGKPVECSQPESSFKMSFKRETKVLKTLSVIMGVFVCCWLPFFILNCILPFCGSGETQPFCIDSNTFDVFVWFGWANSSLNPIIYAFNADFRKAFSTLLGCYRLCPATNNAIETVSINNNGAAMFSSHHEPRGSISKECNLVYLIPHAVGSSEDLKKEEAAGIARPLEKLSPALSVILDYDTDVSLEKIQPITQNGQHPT
T5 sequence (P10275 whole entry T878A): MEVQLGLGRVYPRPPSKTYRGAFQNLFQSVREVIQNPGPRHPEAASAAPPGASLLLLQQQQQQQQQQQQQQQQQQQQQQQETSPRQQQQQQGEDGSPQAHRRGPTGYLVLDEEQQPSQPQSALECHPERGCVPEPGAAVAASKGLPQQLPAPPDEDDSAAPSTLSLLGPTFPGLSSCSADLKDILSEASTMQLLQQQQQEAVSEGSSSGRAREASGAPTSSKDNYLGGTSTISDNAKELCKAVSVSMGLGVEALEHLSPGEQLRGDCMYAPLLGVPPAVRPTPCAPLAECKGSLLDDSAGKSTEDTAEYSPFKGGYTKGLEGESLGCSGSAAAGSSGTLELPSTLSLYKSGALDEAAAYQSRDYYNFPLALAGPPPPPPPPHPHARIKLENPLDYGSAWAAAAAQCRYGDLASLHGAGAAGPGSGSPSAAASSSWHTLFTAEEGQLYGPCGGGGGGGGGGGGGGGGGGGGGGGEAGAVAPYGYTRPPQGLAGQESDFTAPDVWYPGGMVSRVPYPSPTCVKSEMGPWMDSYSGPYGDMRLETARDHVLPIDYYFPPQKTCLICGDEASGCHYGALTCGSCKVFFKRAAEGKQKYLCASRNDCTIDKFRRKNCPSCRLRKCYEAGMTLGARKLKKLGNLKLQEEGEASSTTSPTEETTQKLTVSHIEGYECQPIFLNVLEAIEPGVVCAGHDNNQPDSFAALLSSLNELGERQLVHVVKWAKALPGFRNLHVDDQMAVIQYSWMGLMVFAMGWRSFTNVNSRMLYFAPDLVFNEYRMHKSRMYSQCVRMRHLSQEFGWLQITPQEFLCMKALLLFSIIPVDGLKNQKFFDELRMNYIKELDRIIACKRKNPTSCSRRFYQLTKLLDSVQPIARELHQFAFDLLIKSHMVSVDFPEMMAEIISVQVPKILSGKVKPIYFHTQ
T4 sequence (P35372 whole entry): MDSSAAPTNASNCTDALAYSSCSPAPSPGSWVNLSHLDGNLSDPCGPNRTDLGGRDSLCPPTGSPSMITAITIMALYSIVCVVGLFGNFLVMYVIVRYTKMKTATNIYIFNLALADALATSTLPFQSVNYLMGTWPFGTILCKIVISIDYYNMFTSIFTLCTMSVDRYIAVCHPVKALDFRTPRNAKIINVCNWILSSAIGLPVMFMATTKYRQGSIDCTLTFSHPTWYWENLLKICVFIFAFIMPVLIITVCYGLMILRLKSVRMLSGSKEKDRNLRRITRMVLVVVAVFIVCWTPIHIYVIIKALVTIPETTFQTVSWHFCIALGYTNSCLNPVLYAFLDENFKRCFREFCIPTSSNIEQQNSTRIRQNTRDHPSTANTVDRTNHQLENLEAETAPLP
T6 sequence (P29274 whole entry): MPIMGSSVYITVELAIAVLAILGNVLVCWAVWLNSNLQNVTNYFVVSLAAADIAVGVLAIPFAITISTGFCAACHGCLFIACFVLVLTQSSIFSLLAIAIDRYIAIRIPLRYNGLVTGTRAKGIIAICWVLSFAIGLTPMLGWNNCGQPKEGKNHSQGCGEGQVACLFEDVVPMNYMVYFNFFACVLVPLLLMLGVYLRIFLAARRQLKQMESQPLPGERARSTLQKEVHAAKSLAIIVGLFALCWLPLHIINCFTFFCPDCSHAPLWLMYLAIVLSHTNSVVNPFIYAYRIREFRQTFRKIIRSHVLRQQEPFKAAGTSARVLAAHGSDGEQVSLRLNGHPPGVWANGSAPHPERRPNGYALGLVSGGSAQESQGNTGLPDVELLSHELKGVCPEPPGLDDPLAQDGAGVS
T3 sequence (P08913 whole entry): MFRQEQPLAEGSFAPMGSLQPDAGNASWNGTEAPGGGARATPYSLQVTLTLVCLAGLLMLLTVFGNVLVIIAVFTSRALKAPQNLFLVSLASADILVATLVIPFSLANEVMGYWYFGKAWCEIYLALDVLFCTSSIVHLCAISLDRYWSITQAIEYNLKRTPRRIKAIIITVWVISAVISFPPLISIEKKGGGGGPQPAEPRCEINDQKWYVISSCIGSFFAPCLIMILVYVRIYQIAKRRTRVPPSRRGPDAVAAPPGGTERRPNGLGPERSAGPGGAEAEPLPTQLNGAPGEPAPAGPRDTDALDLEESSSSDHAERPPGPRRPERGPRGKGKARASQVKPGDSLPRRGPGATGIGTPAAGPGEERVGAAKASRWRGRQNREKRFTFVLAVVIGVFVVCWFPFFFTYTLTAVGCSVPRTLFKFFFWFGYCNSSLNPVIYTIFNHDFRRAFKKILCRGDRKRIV
T2 sequence (P41145 whole entry): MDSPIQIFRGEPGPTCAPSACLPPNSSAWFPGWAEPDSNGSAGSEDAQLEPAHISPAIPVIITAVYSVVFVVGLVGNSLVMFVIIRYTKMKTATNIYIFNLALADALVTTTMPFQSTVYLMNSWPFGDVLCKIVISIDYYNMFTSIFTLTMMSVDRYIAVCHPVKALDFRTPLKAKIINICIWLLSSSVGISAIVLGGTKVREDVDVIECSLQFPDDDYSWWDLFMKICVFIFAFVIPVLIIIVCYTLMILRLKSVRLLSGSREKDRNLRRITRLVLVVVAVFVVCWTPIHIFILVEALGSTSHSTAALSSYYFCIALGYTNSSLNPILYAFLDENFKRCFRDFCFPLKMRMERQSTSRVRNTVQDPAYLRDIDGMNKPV
T1 sequence (Q12809 whole entry): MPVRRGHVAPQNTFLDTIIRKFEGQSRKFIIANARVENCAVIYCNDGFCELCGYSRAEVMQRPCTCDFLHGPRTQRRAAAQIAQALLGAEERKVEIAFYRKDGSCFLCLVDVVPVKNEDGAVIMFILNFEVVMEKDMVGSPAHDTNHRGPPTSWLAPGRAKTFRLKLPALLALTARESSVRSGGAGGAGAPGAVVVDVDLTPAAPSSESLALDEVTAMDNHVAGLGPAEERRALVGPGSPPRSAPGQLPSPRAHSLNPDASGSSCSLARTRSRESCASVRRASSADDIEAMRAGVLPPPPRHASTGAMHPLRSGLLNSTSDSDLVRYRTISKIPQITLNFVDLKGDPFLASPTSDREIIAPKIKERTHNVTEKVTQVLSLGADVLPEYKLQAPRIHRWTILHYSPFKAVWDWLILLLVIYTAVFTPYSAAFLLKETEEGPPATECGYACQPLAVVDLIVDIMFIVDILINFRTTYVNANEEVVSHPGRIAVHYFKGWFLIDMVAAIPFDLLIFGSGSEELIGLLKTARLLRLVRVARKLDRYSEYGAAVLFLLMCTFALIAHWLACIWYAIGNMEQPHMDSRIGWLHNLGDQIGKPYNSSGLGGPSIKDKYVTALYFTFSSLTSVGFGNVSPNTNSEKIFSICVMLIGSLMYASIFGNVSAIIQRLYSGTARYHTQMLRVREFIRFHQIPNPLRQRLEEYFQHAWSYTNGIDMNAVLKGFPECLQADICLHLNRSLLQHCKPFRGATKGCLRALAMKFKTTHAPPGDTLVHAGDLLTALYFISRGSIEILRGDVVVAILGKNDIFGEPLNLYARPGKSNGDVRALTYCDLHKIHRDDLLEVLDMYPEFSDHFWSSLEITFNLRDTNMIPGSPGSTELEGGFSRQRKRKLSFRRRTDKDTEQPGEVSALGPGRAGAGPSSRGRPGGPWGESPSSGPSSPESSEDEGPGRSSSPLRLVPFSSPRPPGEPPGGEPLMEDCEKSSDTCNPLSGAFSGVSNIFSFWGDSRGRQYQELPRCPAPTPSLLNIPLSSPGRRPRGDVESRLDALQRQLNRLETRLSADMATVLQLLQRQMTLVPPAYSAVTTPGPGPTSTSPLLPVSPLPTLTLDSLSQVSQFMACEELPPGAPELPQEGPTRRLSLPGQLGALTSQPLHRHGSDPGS

Compound | symptoms in subjects with Parkinson's disease ([1]; 100 mg per day) | psychotic symptoms in schizophrenia and bipolar disorder ([1]; 50-100 mg per day) | hallucinogenic effects ([1]; up to and beyond 100 mg per day, including patients with psychosis) | entries and time spent in the open arms [2] | combined score of DOM-like behavioral features [3] | % Response [4] [%] | % Response [5] [%] | % Response [6] [%] | % Response [7] [%] | % Response [8] [%] | % Response [9] [%] | % Response [10] [%] | % Response [11] [%] | % Response [12] [%]
CC[C@@H](N)Cc1cc(OC)c(C)cc1OC [(R)-Ariadne] | nearly complete remission of symptoms | rapid remission of psychotic symptoms | lack of hallucinogenic effects | acute anxiogenic-like effect | – | – | – | – | – | – | – | – | – | –
CCC(N)Cc1cc(OC)c(C)cc1OC (racemic) [Compound 32, 1-(2,5-dimethoxy-4-methylphenyl)butan-2-amine] | – | – | – | – | low combined score | 18 | 3 | 47 | −15 | 34 | −11 | −8 | 10 | 7
